Reference: patent publication USRE47193E1, “Selectively substituted quinoline compounds” (EISAI R&D MANAGEMENT CO., LTD., priority 2013, dated 2019)
pIC50: −log10 of the molar value. Read-outs that look alike come from different tables or passages of the source.

System: Human TLR7/8
Assay: Human PBMC cell-based assay, TLR7/8 stimulus (RNA-Ig), cytokine ELISA
Outline: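 The agonist was RNA-Ig, a U1 snRNA-derived 26-mer RNA (2.5 μM) complexed with RNA-cross-reacting anti-ssDNA mAb (1:25 or 1 ug/ml), added after 30 min compound pre-incubation (0.1% DMSO). Density-gradient PBMC from healthy donors, 2×10^5/well, were stimulated 20 h at 37 °C; cytokines quantified by ELISA.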

[1] = primary human PBMC assay, TLR7/8 potency, ligand not given, read-out: Human PBMCs IC50

Row | SMILES | pIC50 [1] | also measured
1 | C[C@@H]1CN(c2ccc(C#N)c3ncccc23)C[C@H](CN2CC[C@H](O)C2)O1 [ER-886820] | 7.21 | 
2 | CC(=O)NC1CCN(CC2CN(c3ccc(C#N)c4ncccc34)CC(C)O2)CC1 (centres unmarked) [ER-888288] | 7.82 | 
3 | C[C@@H]1CN(c2ccc(C#N)c3ncccc23)C[C@H](C(=O)NC2CCN(C)CC2)O1 [ER-899464, (2R,6R)-4-(8-cyanoquinolin-5-yl)-6-methyl-N-(1-methylpiperidin-4-yl)morpholine-2-carboxamide] | 9.00 | 
4 | C[C@@H]1CN(C[C@H]2CN(c3ccc(C#N)c4ncccc34)C[C@@H](C)O2)CCN1 [ER-887269] | 9.00 | 
5 | CC1CN(c2ccc(C#N)c3ncccc23)CC(CN2CCC(N(C)C)CC2)O1 (centres unmarked) [ER-887725] | 8.70 | 
6 | CCN(CCO)CCCC(C)Nc1ccnc2cc(Cl)ccc12 (centres unmarked) [HCQ, hydroxychloroquine, reference compound] |  | pIC50 (Hu PBMC, ligand RNA-Ig, analyte IL-6, read-out: IC50): 5.70 to 6.00
7 | CC1CN(c2ccc(C#N)c3ncccc23)CC(CN2CCN(C)CC2C)O1 (centres unmarked) [ER-889556] | 8.00 | 
8 | C[C@@H]1CN(c2ccc(C#N)c3ncccc23)C[C@H](CNC2CCCC2)O1 [ER-887145] | 7.82 | 
9 | C[C@@H]1CN(c2ccc(C#N)c3ncccc23)C[C@H](CN2CCN(C)CC2)O1 [ER-887723] | 8.15 | 
10 | C[C@@H]1CN(c2ccc(C#N)c3ncccc23)C[C@H](CO)O1 [ER-885493, 5-((2R,6R)-2-(hydroxymethyl)-6-methylmorpholino)quinoline-8-carbonitrile] | 6.74 | 
11 | CC[C@H]1CN(C[C@H]2CN(c3ccc(C#N)c4ncccc34)C[C@@H](C)O2)CCN1 [ER-890963] | 8.70 | 
12 | C[C@@H]1CN(c2ccc(C#N)c3ncccc23)C[C@H](CN2CCC(O)CC2)O1 [ER-886953] | 7.59 | 
13 | CCCN1CCN(C[C@H]2CN(c3ccc(C#N)c4ncccc34)C[C@@H](C)O2)CC1 [ER-887724] | 8.22 | 
14 | C[C@@H]1CN(c2ccc(C#N)c3ncccc23)C[C@H](C)O1 [ER-878952] | 6.82 | 
15 | CC1CNC(=O)CN1C[C@H]1CN(c2ccc(C#N)c3ncccc23)C[C@@H](C)O1 (some centres unmarked) [ER-887722] | 7.19 | 
16 | C[C@@H]1CN(c2ccc(C#N)c3ncccc23)C[C@H](CN2CCNCC2)O1 [ER-887253] | 9.00 | 
17 | CC1CN(c2ccc(C#N)c3ncccc23)CC(CN2CCC(NC(=O)C(C)C)CC2)O1 (centres unmarked) [ER-889745] | 7.34 | 
18 | C[C@@H]1CN(c2ccc(C#N)c3ncccc23)C[C@H](C(=O)N[C@H]2CNC[C@H]2F)O1.Cl [ER-899742, (2R,6R)-4-(8-cyanoquinolin-5-yl)-N-[(3S,4R)-4-fluoropyrrolidin-3-yl]-6-methylmorpholine-2-carboxamide hydrochloride] |  | pIC50 (Hu PBMC, ligand RNA-Ig, analyte IL-6): 9.05; fold more potent versus HCQ (RNA-Ig TLR7/8 stimulus): approximately 1000 fold; pIC50 (read-out: Human PBMCs IC50, primary human PBMC assay, TLR7/8 potency, ligand not given): 9.00
